Measurements published in patent publication US20070249720A1, “Thiourea Derivative-Containing Pharmaceutical Composition Having Improved Solubility and Bioavailability” (priority 2003, published 2007).
Values after ≈ are worked out from the molar mass of the structure shown.

Tests used:
[1] = Test for pharmacokinetics after oral administration to rats; assay type: in vivo; conditions: orally administered, 10 mg/kg
Text: 1-(4-t-Butylbenzyl)-3-(3-fluoro-4-methanesulfonylaminobenzyl)thiourea (Compound 1) and the liquid formulation prepared in Formulation Example 3 were each orally administered to rats, and the changes in the plasma drug concentration were monitored according to a set time schedule. Each experimental animal group consisted of four male rats. After the rats were anesthetized with ether and operated for inserting a PE-50 polyethylene tube into the femoral artery, the suspension of Compound 1 in 0.5% sodium carboxymethylcellulose solution and the liquid formulation of Formulation Example 3 were each orally administered to the rats. At 15, 30, 60, 120, 210, 300 and 480 minutes after the administration, 150 micro liter blood samples were taken from the rats. Each blood sample was centrifuged to separate plasma, which was then subjected to HPLC to determine the concentration of Compound 1 in plasma.

[2] = Solubility of Compound 1 in 95% ethanol solution containing 2-hydroxypropyl-β-cyclodextrin (HPLC); assay type: physicochemical; conditions: organic solvent or mixture, thermodynamic from solid, stirred 72 hours
Protocol: 5 g of 1-(4-t-butylbenzyl)-3-(3-fluoro-4-methanesulfonylaminobenzyl)thiourea (Compound 1) was added to 100 ml of 95% ethanol solution containing 0, 1.0, 2.0, 5.0, 10.0 or 20.0 w/v % of 2-hylroxypropyl-β-cyclodextrin, and the mixture was stirred for 72 hours and then filtered through a 0.2 micrometer filter paper. The concentration of Compound 1 in the filtrate was determined by high performance liquid chromatography (HPLC) and the solubility of Compound 1 depending on the concentration of 2-hydroxypropyl-β-cyclodextrin is presented in Table 4.

[3] = Solubility of Compound 1 in 2-hydroxypropyl-β-cyclodextrin solution in glycine buffer (pH 10.5) (HPLC); assay type: physicochemical; conditions: thermodynamic from solid, stirred 72 hours
Protocol: 0.4 g of 1-(4-t-butylbenzyl)-3-(3-fluoro-4-methanesulfonylaminobenzyl)thiourea (Compound 1) was added to each 10 ml of 0, 1.5, 3.5, 7.0, 14.0 and 28.0 w/v % 2-hydroxypropyl-β-cyclodextrin solution in glycine buffer (pH 10.5). The resulting mixture was stirred for 72 hours, filtered through a 0.2 micrometer filter paper.
The concentration of Compound 1 in the filtrate was determined by high performance liquid chromatography (HPLC) and the solubility of Compound 1 depending on the concentration of 2-hylroxypropyl-β-cyclodextrin is presented in Table 2.

[4] = Solubility of Compound 1 in aqueous 2-hydroxypropyl-β-cyclodextrin solutions (HPLC); assay type: physicochemical; conditions: aqueous 2-hydroxypropyl-β-cyclodextrin solution, thermodynamic from solid, stirred 72 hours
Protocol: 0.4 g of 1-(4-t-butylbenzyl)-3-(3-fluoro-4-methanesulfonylaminobenzyl)thiourea (Compound 1) was added to each 10 ml of 0, 1.5, 3.5, 7.0, 14.0 and 28.0 w/v % aqueous solutions of 2-hydroxypropyl-β-cyclodextrin. The resulting mixture was stirred for 72 hours, filtered through a 0.2 micrometer filter paper. The concentration of Compound 1 in the filtrate was determined by high performance liquid chromatography (HPLC) and the solubility of Compound 1 depending on the concentration of 2-hydroxypropyl-β-cyclodextrin is presented in Table 1.

[5] = Comparative dissolution test (Paddle method, Korean pharmacopoeia); assay type: physicochemical; conditions: water as release solvent, 37° C., 50 rpm, FIG. 1
Protocol: 1-(4-t-butylbenzyl)-3-(3-fluoro-4-methanesulfonylaminobenzyl)thiourea (Compound 1) and the tablet prepared in Formulation Example 2 were subjected to test in accordance with dissolution test method II (Paddle method) described in Korean pharmacopoeia using water as a release solvent.
3 ml samples were taken at a given time interval under the condition of 37° C. and 50 rpm, and filtered through a 0.45 micrometer filter. The concentration of Compound 1 in each sample was determined by HPLC.

Compound CC(C)(C)c1ccc(CNC(=S)NCc2ccc(NS(C)(=O)=O)c(F)c2)cc1 [Compound 1, 1-(4-t-butylbenzyl)-3-(3-fluoro-4-methanesulfonylaminobenzyl)thiourea] has a bioavailability ([1]; male, rat, plasma, po, read-out: BA: Bioavailability) of 16.5%, a Cmax ([1]; male, rat, plasma, po, read-out: Cmax: Maximum plasma concentration) of 670 ng/mL and a Tmax ([1]; male, rat, plasma, po, read-out: Tmax: Time at the maximum plasma concentration) of 30 min. The “AUC: Area under the plasma concentration vs. time curve till 24 hours” value [1] was 2.79 microgram · h/ml, the solubility at 72 h ([2]; 0 w/v % 2-hydroxypropyl-β-cyclodextrin) was 19.7 mg/mL (≈ 46.6 mM) and the solubility at 72 h ([2]; 1.0 w/v % 2-hydroxypropyl-β-cyclodextrin) was 21.2 mg/mL (≈ 50.1 mM). It also gave a solubility at 72 h ([2]; 2.0 w/v % 2-hydroxypropyl-β-cyclodextrin) of 22.7 mg/mL (≈ 53.5 mM), a solubility at 72 h ([2]; 5.0 w/v % 2-hydroxypropyl-β-cyclodextrin) of 27.2 mg/mL (≈ 64.3 mM) and a solubility at 72 h ([2]; 10.0 w/v % 2-hydroxypropyl-β-cyclodextrin) of 34.1 mg/mL (≈ 80.6 mM). The solubility at 72 h ([2]; 20.0 w/v % 2-hydroxypropyl-β-cyclodextrin) was 43.5 mg/mL (≈ 103 mM), the solubility at 72 h ([3]; pH 10.5, aqueous buffer, 0 w/v % 2-hydroxypropyl-β-cyclodextrin) was 0.05 mg/mL (≈ 0.118 mM) and the solubility at 72 h ([3]; pH 10.5, aqueous with cosolvent or surfactant or cyclodextrin, 1.5 w/v % 2-hydroxypropyl-β-cyclodextrin) was 2.7 mg/mL (≈ 6.37 mM). The solubility at 72 h ([3]; pH 10.5, aqueous with cosolvent or surfactant or cyclodextrin, 3.5 w/v % 2-hydroxypropyl-β-cyclodextrin) was 4.8 mg/mL (≈ 11.3 mM), the solubility at 72 h ([3]; pH 10.5, aqueous with cosolvent or surfactant or cyclodextrin, 7.0 w/v % 2-hydroxypropyl-β-cyclodextrin) was 9.62 mg/mL (≈ 22.7 mM) and the solubility at 72 h ([3]; pH 10.5, aqueous with cosolvent or surfactant or cyclodextrin, 14.0 w/v % 2-hydroxypropyl-β-cyclodextrin) was 18 mg/mL (≈ 42.5 mM). It also gave a solubility at 72 h ([3]; pH 10.5, aqueous with cosolvent or surfactant or cyclodextrin, 28.0 w/v % 2-hydroxypropyl-β-cyclodextrin) of 32.5 mg/mL (≈ 76.7 mM), a solubility at 72 h ([4]; aqueous with cosolvent or surfactant or cyclodextrin, 1.5 w/v % 2-hydroxypropyl-β-cyclodextrin) of 0.4 mg/mL (≈ 0.944 mM) and a solubility at 72 h ([4]; aqueous with cosolvent or surfactant or cyclodextrin, 3.5 w/v % 2-hydroxypropyl-β-cyclodextrin) of 1.04 mg/mL (≈ 2.46 mM). It also gave a solubility at 72 h ([4]; aqueous with cosolvent or surfactant or cyclodextrin, 7.0 w/v % 2-hydroxypropyl-β-cyclodextrin) of 4.18 mg/mL (≈ 9.87 mM), a solubility at 72 h ([4]; aqueous with cosolvent or surfactant or cyclodextrin, 14.0 w/v % 2-hydroxypropyl-β-cyclodextrin) of 12.2 mg/mL (≈ 28.9 mM) and a solubility at 72 h ([4]; aqueous with cosolvent or surfactant or cyclodextrin, 28.0 w/v % 2-hydroxypropyl-β-cyclodextrin) of 29 mg/mL (≈ 68.4 mM). The solubility at 72 h ([4]; water, 0 w/v % 2-hydroxypropyl-β-cyclodextrin) was 0.01 mg/mL (≈ 0.0236 mM) and the “percent dissolution of drug” value [5] was “insoluble in water”.
